# Results from patent US20250129140A1, “ANTI-HCMV ANTIBODIES AND ANTIGEN-BINDING FRAGMENTS THEREOF” (ICAHN SCHOOL OF MEDICINE AT MOUNT SINAI, priority 2021, published 2025).
# Tested on: CMV TB40/E infected fibroblasts
# Test: SCID mouse gelfoam implant model of CMV proliferation
# Format: in vivo, SCID mice
# Conditions: fully human mAbs 4 or 18 mg/kg, ganciclovir 50 mg/kg; i.p. every three days; day ten; versus isotype control
# Method: At day ten post-implantation, the cells were released from the gelfoam and DNA extracted from the cells was subjected to qPCR for the HCMV UL123 and β-actin genes. The relative CMV levels cells were determined from Ct values of qPCR analysis (in triplicate) from cells collected from three mice/treatment. Statistical tests were performed using ordinary one-way ANOVA with comparisons to isotype treated cells as a control and a Dunnett's post-test; **, p<0.01; ***, p<0.001; ****, p<0.0001.
# The gelfoam was implanted subcutaneously in three mice per group. […] Treatments were administrated every three days for nine days. At day ten post-implant, the gelfoam was removed and cells were released from the gel foam by collagenase treatment. The total DNA was harvest from the cells, quantified, and subjected to qPCR for UL123 (CMV gene) and b-actin (housekeeping geen) using SYBR green to evaluate virus proliferation. The qPCR analysis was performed in triplicate from three animals to determine the Ct values for UL123 and b-actin to calculate the relative levels of CMV DNA from the gelfoam samples.
smiles,measurement,value
"Nc1nc(O)c2ncn(COC(CO)CO)c2n1 [ganciclovir, reference compound]","CMV DNA levels (UL123 relative to β-actin, qPCR)",effective at decreasing CMV DNA levels
